In test [1] the test system is human skin fibroblasts (AD, AC, YC). The class given is cell-based.
Test [2] deals with proteins in the 20 kD region. In words: Total protein analysis (SDS-PAGE, Coomassie blue) of β-amyloid treated AC fibroblasts. Type of test: cell-based, human. As to conditions: 10 nM β-amyloid for 48 h, AC cell lines. The method, then:
(§1) Cell lines and procedures for cell culture. Human skin fibroblasts were grown to confluence in 75 cc growing surface culture flasks (Falcon) containing Dulbecco's modified Eagle's medium (DMEM, Gibco), supplemented with 10% fetal calf serum (Gibco). […]
Protein assay, immunoblotting, and total protein analyses procedures. Protein concentration was determined following an established dye-binding protein assay (R. D. Lane et al. J. Immunol Methods 92:261 (1986) for all homogenates. For immunoblots, a SDS-PAGE 4-20% gradient, […] gel was used (Novex, San Diego, Calif.). Sample volume was adjusted to give a protein concentration of 1 μg/μl. Novex sample buffer (16 μl) was added to 16 μl of sample, the solution was heated to 85° C. for 2 min, loaded into the gel and subjected to […] for ≈1.5 h. The Rainbow™ molecular weight standard (Amersham) was also loaded. The resolved proteins were electrophoretically transferred (51.2 mA for 2 h) to a unmodified 8 by 8 cm nitrocellulose paper (Pierce). […] Immunoblots were then digitized on a flat bed scanner and analyzed with imaging software written in the laboratory (TN Image by T. J. Nelson) for quantitative analysis. […] MW was determined by comparison with Mark12™ standards (Novex). […]

A further test concerns 113 pS K+ channel. As to conditions: low β-amyloid concentration (10 nM), cited from earlier work.
The next test relates to Cp20. In words: Cp20 immunoblot of AC fibroblasts treated with β-amyloid. Type of test: cell-based, human. As to conditions: 10 nM β-amyloid for 48 h, 9 AC cell lines. The method, then: as §1
Protein assay, immunoblotting, and total protein analyses procedures. Protein concentration was determined following an established dye-binding protein assay (R. D. Lane et al. J. Immunol Methods 92:261 (1986) for all homogenates. For immunoblots, a SDS-PAGE 4-20% gradient, […] gel was used (Novex, San Diego, Calif.). Sample volume was adjusted to give a protein concentration of 1 μg/μl. Novex sample buffer (16 μl) was added to 16 μl of sample, the solution was heated to 85° C. for 2 min, loaded into the gel and subjected to […] for ≈1.5 h. The Rainbow™ molecular weight standard (Amersham) was also loaded. The resolved proteins were electrophoretically transferred (51.2 mA for 2 h) to a unmodified 8 by 8 cm nitrocellulose paper (Pierce). […]

The next test concerns 113 pS K^+ channel. Kind of test: Patch-clamp, cell-free patches: channel sensitivity to blockers. Type of test: cell-based, human. As to conditions: 50 mM Ba^2+, inside-out patches, n=4. As to the method: (§2) Patch-clamp experiments were performed at room temperature (21-23° C.), following standard procedures set forth in Sakmann, B. and Neher, E. (1983) Single Channels Recordings (Plenum New York) and Kukuljan, M., et al. (1991) J. Membrane Biol. 119:187. Before recordings, […] culture medium was replaced with the following solution: 150 mM NaCl, 5 mM KCl, 2 mM CaCl2, 1 MM MgCl2, 10 mM HEPES […] pH=7.4. Pipettes were made from Blue Tip capillary tubes (I.D. 1.1-1.2 mm) using a BB-CH Mecanex puller, and then filled with a high potassium solution of 140 mM KCl, 2 mM CaCl2, 1 mM MgCl2, 10 mM HEPES (NaOH), pH=7.4. Pipette resistances were approximately 6 MΩ. Records were obtained using an Axopatch-1C amplifier (dc-10 kHz), stored on tape (Toshiba PCM-video recorder), and later transferred to a personal computer using an Axolab interface. Only recordings lasting for at least 3 minutes were considered for final analysis. The pClamp suite of programs was used for single-channel data acquisition and analysis. Amplifier, interface and software were obtained from Axon Instruments (Foster City, Calif.).
(In patch-clamp work, channel activity is measured electrically.)

A further test deals with 166 pS K^+ channel. The test is described as above. Type of test: cell-based, human. As to conditions: 50 mM Ba^2+, inside-out patches, n=4. The method, then: as §2

Entries after “also recorded” stand apart in the source; their conditions may differ.

Consider `[Cl][Cd][Cl]` [CdCl2], for which, in test [1], the “response to high potassium when agent is added before stimulation” value (“response to high potassium” below) is “No responses were observed”. Consider `O=C(O)CN(CCOCCOCCN(CC(=O)O)CC(=O)O)CC(=O)O` [EGTA], for which the “response to high potassium” value in test [1] is given as “No responses were observed”. Same read-out and setting: next, `[Cl][La]([Cl])[Cl]` [LaCl3]: “No responses were observed”. As for β-amyloid 1-40 peptide, in test [2], the “effect on total protein profile / proteins in the 20 kD region” value is recorded as “not a generalized effect on all proteins in the 20 kD region; also recorded: revealed no differences”. Also, the “effect on the 113 pS K+ channel / K+ function” value with 113 pS K+ channel (control cells) is on record as “specific AD-like effects; also recorded: induces an AD-like K+ dysfunction”. The “effect on basal levels of intracellular Ca^2+” value with 113 pS K+ channel is “without altering basal levels”. Further, in the test with Cp20, the “Cp20 level in treated cells compared to non-treated counterparts” value was “significantly reduced; also recorded: reduction of Cp20; also recorded: induced the Alzheimer's disease phenotypes for Cp20”. On to `[Cl-].[Cl-].[Co+2]` [CoCl2], for which the “response to high potassium” value in test [1] was “No responses were observed”. The same measure, in the same setting: next, `[Cl][Ni][Cl]` [NiCl2]: “No responses were observed”. Take `[Cl-].[K+]` [KCl, potassium chloride]: the “return of [Ca^2+]i to basal levels” value in test [1] (50 mM KCl) came out at 100 s. In addition, in test [1] (50 mM KCl, all three groups (AD, AC, YC)), the “[Ca^2+]i elevation” value is recorded as “at least 100%”.

On to `[Ba+2]` [Ba^2+], for which the “sensitivity of the 113 pS channel to Ba^2+” value in the test with 113 pS K^+ channel is on record as “sensitive”. Besides, the “sensitivity of the 166 pS channel to Ba^2+” value in the test on 166 pS K^+ channel is reported as “sensitive”.

The values are drawn from patent US20020098520A1, “Cell tests and diagnostic index for alzheimer's disease” (priority 1993, published 2002).
